Test results published in patent US9718790B2, “Triazine derivative and pharmaceutical composition having an analgesic activity comprising the same” (SHIONOGI & CO., LTD., priority 2010, dated 2017).

target: human P2X3 receptor (Homo sapiens (Human), UniProt P56373); experiment: Evaluation of human P2X3 receptor inhibitory activity (Fluo-3 calcium fluorescence, FDSS 3000, ATP stimulation); assay type: cell-based; settings: C6BU-1 cells stably expressing human P2X3 receptor;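 further: stimulus was 50 nM ATP with fluorescence followed for 3 min, and the response per well was peak post-ATP fluorescence divided by the reading at measurement start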
Sequence (P56373 whole entry): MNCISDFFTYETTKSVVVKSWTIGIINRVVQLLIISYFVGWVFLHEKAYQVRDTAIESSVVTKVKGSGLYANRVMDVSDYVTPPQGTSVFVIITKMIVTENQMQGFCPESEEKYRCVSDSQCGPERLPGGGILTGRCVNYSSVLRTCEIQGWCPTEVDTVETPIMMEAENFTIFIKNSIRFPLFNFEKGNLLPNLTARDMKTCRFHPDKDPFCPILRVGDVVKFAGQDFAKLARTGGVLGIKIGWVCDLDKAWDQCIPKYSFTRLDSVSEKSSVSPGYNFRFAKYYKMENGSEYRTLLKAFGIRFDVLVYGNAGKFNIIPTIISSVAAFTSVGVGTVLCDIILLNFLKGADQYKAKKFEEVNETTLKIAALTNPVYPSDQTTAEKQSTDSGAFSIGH

Compared with `CC(C)Oc1ccc(/N=c2\[nH]c(=O)n(C[C@H]3CC(=O)N([C@@H](C)c4ccccc4)C3)c(=O)n2Cc2ccc(Cl)cc2)cc1F` [Compound I-0661], `CC(C)Oc1ccc(/N=c2\[nH]c(=O)n([C@H](C)[C@H](C)C(=O)O)c(=O)n2Cc2ccc(Cl)cc2)cc1F` [Compound I-1343] is 5-fold higher in IC50: 7 nM for the first, 35 nM for the second. The first is the more potent here.

Compared with `COC(=O)[C@H](C)[C@H](C)n1c(=O)[nH]/c(=N\c2ccc(OC3CCC3)c(C)c2)n(Cc2ccc(C)cc2)c1=O` [Compound I-1402], `COC(=O)[C@@H](C)Cn1c(=O)[nH]/c(=N\c2ccc(OC(C)C)c(C)c2)n(Cc2ccc(C)cc2)c1=O` [Compound I-0670] is 4.1-fold lower in IC50: 33 nM for the first, 8 nM for the second. The second is the more potent here.

Going from `CCCc1ccc(/N=c2\[nH]c(=O)n(CCC(=O)OCC)c(=O)n2Cc2ccc(C)cc2)cc1C` [Compound I-1215] to `CCOC(=O)Cc1c(C)oc2ccc(/N=c3\[nH]c(=O)n(CC)c(=O)n3Cc3ccc(Cl)cc3)cc12` [Compound I-2149], the IC50 rises from 27 nM to 791 nM (29-fold).

Going from `CC(C)Cc1ccc(/N=c2\[nH]c(=O)n(C[C@H](C)C(=O)O)c(=O)n2Cc2ccc(Cl)cc2)cc1Cl` [Compound I-1372] to `COC(=O)[C@@H](C)Cn1c(=O)[nH]/c(=N\c2ccc(CC(C)C)c(Cl)c2)n(Cc2ccc(C)cc2)c1=O` [Compound I-1371], the IC50 rises from 5 nM to 9 nM (1.8-fold). The first is the more potent here.

Going from `CCc1cc2cc(/N=c3\[nH]c(=O)n(C[C@H](C)C(=O)O)c(=O)n3Cc3ccc(Cl)cc3)ccc2s1` [Compound I-1964] to `CCCOc1ccc(/N=c2\[nH]c(=O)n(C[C@H](C)C(=O)O)c(=O)n2Cc2ccc(Cl)cc2)cc1Cl` [Compound I-0747], the IC50 falls from 277 nM to 12 nM (23-fold). The second is the more potent here.

Compared with `COC(=O)[C@@H](C)Cn1c(=O)[nH]/c(=N\c2ccc3c(c2)COCO3)n(Cc2ccc(Cl)cc2)c1=O` [Compound I-0744], `COC(=O)[C@@H](C)Cn1c(=O)[nH]/c(=N\c2ccc3c(c2)CCCC3)n(Cc2ccc(Cl)cc2)c1=O` [Compound I-0791] is 5-fold higher in IC50: 53 nM for the first, 266 nM for the second.

First: CNC(=O)Cn1c(=O)[nH]/c(=N\c2ccc(O[C@H](C)C(F)(F)F)cc2)n(Cc2ccc(Cl)cc2)c1=O [Compound I-1960]
Second: CCn1c(=O)[nH]/c(=N\c2ccc(Oc3cc(C(=O)OC)on3)cc2)n(Cc2ccc(Cl)cc2)c1=O [Compound I-1941]
The IC50 of the first is 11-fold higher: 54 nM for the first, 5 nM for the second.

`CCn1c(=O)[nH]/c(=N\c2ccc(Oc3ccc(C(=O)O)nc3)cc2)n(Cc2ccc(C)cc2)c1=O` [Compound I-2116] and `CCn1c(=O)[nH]/c(=N\c2ccc(Oc3ccc(C(=O)O)cc3)cc2)n(Cc2ccc(C)cc2)c1=O` [Compound I-2035] are within 1.5-fold of each other in IC50: 15 nM for the first, 22 nM for the second.

Compared with `CNC(=O)c1cc(Oc2ccc(/N=c3\[nH]c(=O)[nH]c(=O)n3Cc3ccc(Cl)cc3)cc2F)ccn1` [Compound I-2101], `CCC(=O)Nc1cc(Oc2ccc(/N=c3\[nH]c(=O)n(CC)c(=O)n3Cc3ccc(Cl)cc3)cc2)ccn1` [Compound I-2217] is 4.3-fold lower in IC50: 26 nM for the first, 6 nM for the second.

First: Cc1cc2cc(/N=c3\[nH]c(=O)n([C@@H](C)[C@@H](C)C(=O)O)c(=O)n3Cc3ccc(Cl)cc3)ccc2o1 [Compound I-1351]
Second: Cc1ccc(Oc2ccc(/N=c3\[nH]c(=O)n([C@@H](C)[C@@H](C)C(=O)O)c(=O)n3Cc3ccc(Cl)cc3)cc2)cn1 [Compound I-1388]
The IC50 of the first is 4.6-fold higher: 41 nM for the first, 9 nM for the second.

Compared with `CCc1nc2ccc(/N=c3\[nH]c(=O)n(CCCCC(=O)O)c(=O)n3Cc3ccc(Cl)cc3)cc2s1` [Compound I-2185], `O=c1[nH]/c(=N\c2ccc(Oc3cc(CO)on3)cc2)n(Cc2ccc(Cl)cc2)c(=O)n1CCO` [Compound I-2118] is 2.3-fold higher in IC50: 15 nM for the first, 35 nM for the second.

Going from `Cc1nc2ccc(/N=c3\[nH]c(=O)n(C[C@H](O)CO)c(=O)n3CC3CCC(C)CC3)cc2s1` (some centres unmarked) [Compound I-2097] to `Cc1ccc(Cn2c(=O)n(C[C@H](C)C(=O)O)c(=O)[nH]/c2=N\c2ccc(OC3CCCC3)nc2)cc1` [Compound I-1226], the IC50 rises from 5 nM to 122 nM (24-fold).

Going from `CCn1c(=O)[nH]/c(=N\c2ccc(Oc3cc(C(N)=O)ccn3)cc2)n(Cc2ccc(Cl)cc2)c1=O` [Compound I-2165] to `CCn1c(=O)[nH]/c(=N\c2ccc(Oc3ccc(F)c(C(=O)OC)c3)cc2)n(Cc2ccc(Cl)cc2)c1=O` [Compound I-2057], the IC50 falls from 979 nM to 21 nM (47-fold).

`COC(=O)[C@@H](C)Cn1c(=O)[nH]/c(=N\c2ccc(OC(C)C)c(Cl)c2)n(Cc2ccc(C)cc2)c1=O` [Compound I-0593] and `Cc1ccc(Cn2c(=O)n(CC(C)(C)C(=O)O)c(=O)[nH]/c2=N\c2ccc(CC(C)C)c(Cl)c2)cc1` [Compound I-1462] are within 1.5-fold of each other in IC50: 4 nM for the first, 3 nM for the second.

Going from `CCOC(=O)CCn1c(=O)[nH]/c(=N\c2ccc(OC3CCC3)cc2)n(Cc2ccc(Cl)cc2)c1=O` [Compound I-1283] to `COC(=O)[C@@H](C)[C@@H](C)n1c(=O)[nH]/c(=N\c2ccc(OCC3CC3)cc2)n(Cc2ccc(Cl)cc2)c1=O` [Compound I-1316], the IC50 rises from 4 nM to 54 nM (14-fold). The first is the more potent here.

Compared with `CC(C)Oc1ccc(/N=c2\[nH]c(=O)n(CC(C)(C)C(=O)O)c(=O)n2Cc2ccc(Cl)cc2)cc1CO` [Compound I-1431], `CCn1c(=O)[nH]/c(=N\c2ccc(Oc3cc(C(=O)OC)nc(Cl)n3)cc2)n(Cc2ccc(Cl)cc2)c1=O` [Compound I-2210] is 17-fold lower in IC50: 242 nM for the first, 14 nM for the second.

First: COC(=O)c1ccc(Oc2ccc(/N=c3\[nH]c(=O)n(C)c(=O)n3Cc3ccc(Cl)cc3)cc2)cc1 [Compound I-2058]
Second: COC(=O)[C@@H](C)Cn1c(=O)[nH]/c(=N\c2ccc(N3CCCCCC3)cc2)n(Cc2ccc(C)cc2)c1=O [Compound I-1234]
The IC50 of the first is 33-fold lower: 7 nM for the first, 230 nM for the second.

same assay, conditions: C6BU-1 cells stably expressing human P2X3 receptor, Fluo-3 fluorescence, FDSS 3000

Going from `C[C@@H](Cn1c(=O)[nH]/c(=N\c2ccc(Oc3ccccc3)cc2)n(Cc2ccc(Cl)cc2)c1=O)C(=O)O` [Compound I-0991, (S)-1-(4-chlorobenzyl)-3-(2-hydroxycarbonylpropyl)-6-(4-phenoxyphenylimino)-1,3,5-triazinane-2,4-dion] to `CCn1c(=O)[nH]/c(=N\c2ccc(Oc3ccnc(CO)c3)cc2)n(Cc2ccc(Cl)cc2)c1=O` [Compound I-1844], the IC50 falls from 22 nM to 4 nM (5.5-fold). The second is the more potent here.

Going from `COC(=O)[C@@H](C)Cn1c(=O)nc(Cc2ccccc2C)n(Cc2ccc(Cl)cc2)c1=O` [Compound I-1865] to `COC(=O)[C@@H](C)Cn1c(=O)[nH]/c(=N\c2ccc(CC(C)C)c(C)c2)n(Cc2ccc(C)cc2)c1=O` [Compound I-1043], the IC50 falls from 357 nM to 10 nM (36-fold).

Going from `COC(=O)C(=O)Cn1c(=O)[nH]/c(=N\c2ccc(OC(C)C)c(C)c2)n(Cc2ccc(Cl)cc2)c1=O` [Compound I-0996, 1-(4-chlorobenzyl)-6-(3-mehyl-4-isopropoxyphenylimino)-3-(2-methoxycarbonyl-2-oxoethyl)-1,3,5-triazinane-2,4-dion] to `Cc1cc(/N=c2\[nH]c(=O)n(CC3CNC3)c(=O)n2Cc2ccc(Cl)cc2)ccc1OC(C)C` [Compound I-1654], the IC50 rises from 32 nM to 66 nM (2.1-fold).

Going from `Cc1ccc(Cn2c(=O)n(CCC(=O)O)c(=O)[nH]/c2=N\c2ccc(OCC3CC3)c(Cl)c2)cc1` [Compound I-0968] to `Cc1ccc(Cn2c(=O)n(CCC(=O)O)c(=O)[nH]/c2=N\c2ccc(O[C@H](C)C(F)(F)F)cc2)cc1` [Compound I-1031], the IC50 falls from 107 nM to 64 nM (1.7-fold). The second is the more potent here.

Going from `CCc1oc2ccc(/N=c3\[nH]c(=O)n(CCCNC(=O)C(F)(F)F)c(=O)n3Cc3ccc(Cl)cc3)cc2c1C` [Compound I-1567] to `CC(C)=Cc1ccc(/N=c2\[nH]c(=O)n(C[C@H](C)C(=O)O)c(=O)n2Cc2ccc(C)cc2)cc1F` [Compound I-1174], the IC50 rises from 12 nM to 27 nM (2.2-fold). The first is the more potent here.

Going from `Cc1cc(/N=c2\[nH]c(=O)n([C@@H](C)[C@H](C)C(=O)O)c(=O)n2Cc2ccc(Cl)cc2)ccc1OC(C)C` [Compound I-1026] to `O=C(O)C1(Cn2c(=O)[nH]/c(=N\c3ccc(OCC4CC4)cc3)n(Cc3ccc(Cl)cc3)c2=O)CC1` [Compound I-0934], the IC50 falls from 182 nM to 57 nM (3.2-fold). The second is the more potent here.

Work on `Cc1ccc(Cn2c(=O)n(C[C@H](C)C(=O)O)c(=O)[nH]/c2=N\c2ccc(C=C3CCCC3)cc2)cc1` [Compound I-1098] yielded an IC50 of 74 nM.

same assay, conditions: human P2X3 receptor, Test Example 1

Going from `CCn1c(=O)[nH]/c(=N\c2ccc(Oc3cc(C(=O)O)sn3)cc2)n(Cc2ccc(Cl)cc2)c1=O` [Compound I-2249] to `CCn1c(=O)[nH]/c(=N\c2ccc(Oc3ccc(C(=O)O)nn3)cc2)n(Cc2ccc(Cl)cc2)c1=O` [Compound I-2273], the IC50 rises from 6 nM to 12 nM (2-fold). The first is the more potent here.

`CCn1c(=O)[nH]/c(=N\c2ccc(Oc3ccc(C(N)=O)nc3)cc2)n(Cc2ccc(Cl)cn2)c1=O` [Compound I-2279] and `CCn1c(=O)[nH]/c(=N\c2ccc(Oc3cccc(C(=O)O)n3)cc2)n(Cc2ccc(Cl)cn2)c1=O` [Compound I-2239] are within 1.5-fold of each other in IC50: 33 nM for the first, 49 nM for the second.

Compared with `CNC(=O)Cn1c(=O)[nH]/c(=N\c2ccc(Oc3nc(C)ns3)cc2)n(Cc2ccc(Cl)cc2)c1=O` [Compound I-2581], `Cn1c(=O)[nH]/c(=N\c2ccc(Oc3nc(C(=O)O)cs3)cc2)n(Cc2ccc(Cl)cc2)c1=O` [Compound I-2410] is 7.2-fold higher in IC50: 5 nM for the first, 36 nM for the second. The first is the more potent here.

`CCn1c(=O)[nH]/c(=N\c2ccc(Oc3ccnc(C(=O)NC)c3)c(OC)c2)n(Cc2ccc(Cl)cc2)c1=O` [Compound I-2251] and `CCn1c(=O)[nH]/c(=N\c2ccc(Oc3ccnc(NCC(N)=O)c3)cc2)n(Cc2ccc(Cl)cc2)c1=O` [Compound I-2554] are within 1.5-fold of each other in IC50: 5 nM for the first, 7 nM for the second.

Going from `CCn1c(=O)[nH]/c(=N\c2ccc(Oc3ncc(C(=O)O)s3)cc2)n(C[C@H]2CC[C@H](C)CC2)c1=O` [Compound I-2347] to `CCn1c(=O)[nH]/c(=N\c2ccc(Oc3ccc(C(=O)OC)nn3)cc2)n(Cc2ccc(Cl)cc2)c1=O` [Compound I-2269], the IC50 falls from 5 nM to 2 nM (2.5-fold).

Going from `CC(=O)Nc1ccc(Oc2ccc(/N=c3\[nH]c(=O)n(C)c(=O)n3Cc3ccc(Cl)cc3)cc2)cn1` [Compound I-2429] to `CC[C@H](C)n1c(=O)[nH]/c(=N\c2ccc(Oc3cncc(C(=O)O)c3)cc2)n(Cc2ccc(Cl)cc2)c1=O` [Compound I-2481], the IC50 rises from 5 nM to 8 nM (1.6-fold). The first is the more potent here.

Compared with `N#Cc1cccc(Oc2ccc(/N=c3\[nH]c(=O)n(CCC(=O)O)c(=O)n3Cc3ccc(Cl)cc3)cc2)n1` [Compound I-2667], `Cc1ccc(Cn2c(=O)n(C[C@H](C)C(=O)O)c(=O)[nH]/c2=N\c2ccc(OCC(C)C)cc2)cc1` [Compound I-0827] is 2.6-fold higher in IC50: 10 nM for the first, 26 nM for the second.

`CCCOc1ccc(/N=c2\[nH]c(=O)n([C@H](C)CC(=O)OC)c(=O)n2Cc2ccc(C)cc2)cc1Cl` [Compound I-0877] gave an IC50 of 28 nM.
